Assay results as given in PubChem BioAssay (NCI).
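Following 48 hours of exposure in 96-well plates, responses at five concentrations were used to interpolate endpoints linearly. The concentration for 50% growth inhibition is given as GI50. The concentration for full growth arrest is given as TGI.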

Legend:
Assay in all cases: DTP human tumour cell line panel, 48 h
SK-OV-3 ovarian = system: SK-OV-3 ovarian
OVCAR-5 ovarian = system: OVCAR-5 ovarian
HT29 colon = system: HT29 colon
RXF 393 renal = system: RXF 393 renal
LOX IMVI melanoma = system: LOX IMVI melanoma
NCI-H226 lung = system: NCI-H226 lung
A549 NSCLC = system: A549 NSCLC
NCI-H460 lung = system: NCI-H460 lung
HCT-15 colon = system: HCT-15 colon
T-47D breast = system: T-47D breast
COLO 205 colon = system: COLO 205 colon
ACHN renal = system: ACHN renal
MOLT-4 leukemia = system: MOLT-4 leukemia
OVCAR-4 ovarian = system: OVCAR-4 ovarian
HOP-62 NSCLC = system: HOP-62 NSCLC
CCRF-CEM leukemia = system: CCRF-CEM leukemia
U251 CNS = system: U251 CNS
BT-549 breast = system: BT-549 breast
PC-3 prostate = system: PC-3 prostate
SK-MEL-28 melanoma = system: SK-MEL-28 melanoma
HCT-116 colon = system: HCT-116 colon
OVCAR-3 ovarian = system: OVCAR-3 ovarian
786-0 renal = system: 786-0 renal
SNB-75 CNS = system: SNB-75 CNS
HL-60(TB) leukemia = system: HL-60(TB) leukemia
UACC-62 melanoma = system: UACC-62 melanoma
SN12C renal = system: SN12C renal
SF-539 CNS = system: SF-539 CNS
SF-295 CNS = system: SF-295 CNS
HS 578T breast = system: HS 578T breast
SF-268 CNS = system: SF-268 CNS
HCC-2998 colon = system: HCC-2998 colon
MDA-MB-231 breast = system: MDA-MB-231 breast
MDA-MB-435 = system: MDA-MB-435
SK-MEL-2 melanoma = system: SK-MEL-2 melanoma
SW-620 colon = system: SW-620 colon
DU-145 prostate = system: DU-145 prostate
HOP-92 NSCLC = system: HOP-92 NSCLC
A498 renal = system: A498 renal
SNB-19 CNS = system: SNB-19 CNS
MALME-3M melanoma = system: MALME-3M melanoma
KM12 colon = system: KM12 colon
M14 melanoma = system: M14 melanoma
CAKI-1 renal = system: CAKI-1 renal
IGROV1 ovarian = system: IGROV1 ovarian
TK-10 renal = system: TK-10 renal
K-562 leukemia = system: K-562 leukemia
RPMI-8226 leukemia = system: RPMI-8226 leukemia
MCF7 breast = system: MCF7 breast
UO-31 renal = system: UO-31 renal
SK-MEL-5 melanoma = system: SK-MEL-5 melanoma
NCI/ADR-RES ovarian = system: NCI/ADR-RES ovarian
SR leukemia = system: SR leukemia
UACC-257 melanoma = system: UACC-257 melanoma
OVCAR-8 ovarian = system: OVCAR-8 ovarian

Q: What does the source list for `Cc1ccc(NC2=C(Cl)C(=O)c3nc(C)ccc3C2=O)c(C)c1`?
A: GI50 (SK-OV-3 ovarian): 2750 nM; TGI (SK-OV-3 ovarian): 10.6 µM; GI50 (OVCAR-5 ovarian): 2260 nM; TGI (OVCAR-5 ovarian): 4.33 µM; GI50 (HT29 colon): 2610 nM; TGI (HT29 colon): 7.34 µM; GI50 (RXF 393 renal): 1410 nM; TGI (RXF 393 renal): 2760 nM; GI50 (LOX IMVI melanoma): 1140 nM; TGI (LOX IMVI melanoma): 3.88 µM; GI50 (NCI-H226 lung): 1810 nM; TGI (NCI-H226 lung): 4.63 µM; GI50 (A549 NSCLC): 2220 nM; TGI (A549 NSCLC): 5.2 µM; GI50 (NCI-H460 lung): 1990 nM; TGI (NCI-H460 lung): 4.17 µM; GI50 (HCT-15 colon): 1300 nM; TGI (HCT-15 colon): 3.19 µM; GI50 (T-47D breast): 1660 nM; TGI (T-47D breast): 4.14 µM; GI50 (COLO 205 colon): 2060 nM; TGI (COLO 205 colon): 4.28 µM; GI50 (ACHN renal): 1910 nM; TGI (ACHN renal): 3.72 µM; GI50 (MOLT-4 leukemia): 1600 nM; TGI (MOLT-4 leukemia): 4.83 µM; GI50 (OVCAR-4 ovarian): 1530 nM; TGI (OVCAR-4 ovarian): 3.02 µM; GI50 (HOP-62 NSCLC): 1710 nM; TGI (HOP-62 NSCLC): 3.16 µM; GI50 (CCRF-CEM leukemia): 2020 nM; TGI (CCRF-CEM leukemia): 6 µM; GI50 (U251 CNS): 1760 nM; TGI (U251 CNS): 3.37 µM; GI50 (BT-549 breast): 1440 nM; TGI (BT-549 breast): 2820 nM; GI50 (PC-3 prostate): 1560 nM; TGI (PC-3 prostate): 3.66 µM; GI50 (SK-MEL-28 melanoma): 1950 nM; TGI (SK-MEL-28 melanoma): 3.84 µM; GI50 (HCT-116 colon): 1520 nM; TGI (HCT-116 colon): 3.25 µM; GI50 (OVCAR-3 ovarian): 1420 nM; TGI (OVCAR-3 ovarian): 2840 nM; GI50 (786-0 renal): 2000 nM; TGI (786-0 renal): 4.4 µM; GI50 (SNB-75 CNS): 1490 nM; TGI (SNB-75 CNS): 3.08 µM; GI50 (HL-60(TB) leukemia): 1740 nM; TGI (HL-60(TB) leukemia): 4.48 µM; GI50 (UACC-62 melanoma): 2000 nM; TGI (UACC-62 melanoma): 4.01 µM; GI50 (SN12C renal): 1950 nM; TGI (SN12C renal): 5.03 µM; GI50 (SF-539 CNS): 1700 nM; TGI (SF-539 CNS): 3.21 µM; GI50 (SF-295 CNS): 1820 nM; TGI (SF-295 CNS): 3.43 µM; GI50 (HS 578T breast): 2280 nM; TGI (HS 578T breast): 5.95 µM; GI50 (SF-268 CNS): 1860 nM; TGI (SF-268 CNS): 4.16 µM; GI50 (HCC-2998 colon): 1750 nM; TGI (HCC-2998 colon): 3.31 µM; GI50 (MDA-MB-231 breast): 1890 nM; TGI (MDA-MB-231 breast): 4.44 µM; GI50 (MDA-MB-435): 1960 nM; TGI (MDA-MB-435): 3.81 µM; GI50 (SK-MEL-2 melanoma): 1930 nM; TGI (SK-MEL-2 melanoma): 3.88 µM; GI50 (SW-620 colon): 2150 nM; TGI (SW-620 colon): 4.65 µM; GI50 (DU-145 prostate): 1710 nM; TGI (DU-145 prostate): 3.22 µM; GI50 (HOP-92 NSCLC): 2080 nM; TGI (HOP-92 NSCLC): 4.35 µM; GI50 (A498 renal): 1610 nM; TGI (A498 renal): 6.59 µM; GI50 (SNB-19 CNS): 1940 nM; TGI (SNB-19 CNS): 4.34 µM; GI50 (MALME-3M melanoma): 1960 nM; TGI (MALME-3M melanoma): 3.9 µM; GI50 (KM12 colon): 1740 nM; TGI (KM12 colon): 3.29 µM; GI50 (M14 melanoma): 1620 nM; TGI (M14 melanoma): 3.08 µM; GI50 (CAKI-1 renal): 1730 nM; TGI (CAKI-1 renal): 3.34 µM; GI50 (IGROV1 ovarian): 1850 nM; TGI (IGROV1 ovarian): 3.88 µM; GI50 (TK-10 renal): 2150 nM; TGI (TK-10 renal): 3.68 µM; GI50 (K-562 leukemia): 1620 nM; TGI (K-562 leukemia): 5.54 µM; GI50 (RPMI-8226 leukemia): 1540 nM; TGI (RPMI-8226 leukemia): 4.34 µM; GI50 (MCF7 breast): 1400 nM; TGI (MCF7 breast): 3.58 µM; GI50 (UO-31 renal): 1560 nM; TGI (UO-31 renal): 3.15 µM; GI50 (SK-MEL-5 melanoma): 1670 nM; TGI (SK-MEL-5 melanoma): 3.08 µM; GI50 (NCI/ADR-RES ovarian): 2170 nM; TGI (NCI/ADR-RES ovarian): 6.52 µM; GI50 (SR leukemia): 1280 nM; TGI (SR leukemia): 4.19 µM; GI50 (UACC-257 melanoma): 1500 nM; TGI (UACC-257 melanoma): 2920 nM; GI50 (OVCAR-8 ovarian): 2410 nM; TGI (OVCAR-8 ovarian): 7.11 µM
